Patent US20200405715A1, “COMPOSITIONS AND METHODS FOR TREATING CANCER AND INFLAMMATORY DISEASES” (University of Pittsburgh - Of the Commonwealth System of …, priority 2016, published 2020)

Tests used:
HepG2 cells [1] = assay: Cell cycle analysis by BrdU uptake and 7-AAD staining; format: cell-based
Protocol: (§1) HepG2 cells were treated with 3-(decylamino)-5-phenylcyclohex-2-en-1-one for 36 h with various concentrations. Cells were then analyzed by BrdU uptake and 7-AAD staining, G0, G1, S, G2/M phase cells were then quantitated and graphed. […] Confluent monolayers of HepG2 cells were injured and cellular migration into the wound was determined under vehicle or 3-(decylamino)-5-phenylcyclohex-2-en-1-one treated condition. 36 h later cells were then observed under white field microscopy and recovery of cells to wound heal was quantified and graphed (right).
(§2) HepG2 cells were treated with 3-(decylamino)-5-phenylcyclohex-2-en-1-one at 10 μM for various times. At each time point, cells were analyzed by BrdU uptake and 7-AAD staining, G0, G1, S, G2/M phase cells were then quantitated and graphed. […] Cells were then observed under white field microscopy.

PBMC cells = assay: LPS-induced TNF release from PBMC cells (ELISA); format: cell-based; settings: various concentrations for 2 h, then LPS (10 ng/ml) for 12 h (FIG. 10A)
Protocol: (§3) Cells were then treated with LPS (10 ng/ml) for additional 2 h. Media were then collected and TNF concentration was determined by ELISA. […] Lung tissue was collected and assayed for immunoblotting. Culture media was collected and assayed for cytokines.
Since SCF machinery is believed to be essential for NF-kB activation, it was investigated whether the DCN1 inhibitors could affect inflammation. 3-(decylamino)-5-phenylcyclohex-2-en-1-one was first tested in PBMCs cells. Briefly, PBMC cells were treated with 3-(decylamino)-5-phenylcyclohex-2-en-1-one at various concentrations for 2 h before exposed to LPS (10 ng/ml) for 12 h.

[2] = tested on: DSS induced colonic inflammation; assay: DSS induced colitis model; format: in vivo, C57BL6 mice; settings: DSS in water
Protocol: FIGS. 12A-12D show DCN1 inhibitors reduce DSS induced colonic inflammation, specifically the following experimental results C57BL6 mice were fed with water ad lib containing 3% dextran sulfate sodium (DSS) for six days. DCN1 inhibitors were administered into drinking water at 10 mg/kg/d, starting at day 1. […] The data represent n=4 mice/group, *P<0.05 versus CON.
Also tested were 3-(decylamino)-5-phenylcyclohex-2-en-1-one (BC1558), 3-(dibenzylamino)-5-phenylcyclohex-2-en-1-one (BC1634) and 3-((4-phenoxybenzyl)amino)-5-phenylcyclohex-2-en-1-one (BC1653) in a mouse colitis model to confirm its anti-inflammatory activity. Briefly, C57BL6 mice were fed with water containing 3.5% […] and colonic length was measured. DSS produced a significant decrease in colon length in mice, consistent with colonic inflammation (FIG. 12A-B). […] Colonic tissue cytokine levels were further analyzed.

Nedd8-cullin = assay: Cullin neddylation, protein immunoblotting in HepG2 cells; format: cell-based
Description: Cells were then collected and assayed for protein immunoblotting. […]
DCN1 protein is believed to harbor a UBC12 binding pocket. Scott et al, Cell 757:1671-84 (2014). […] Scott et al. (2014). The N-terminal acetylation acts as an avidity enhancer within an interconnected multiprotein complex. Science, 554:674-8 (2011). Specifically, n-terminal of UBC12 is acetylated (FIG. 1A, yellow) and completely buried inside the hydrophobic pocket within DCN1 (4gao.PDB, FIG. 1B). Small molecule inhibition of the DCN1 hydrophobic pocket would presumably disrupt UBC12 binding, and thus disrupt Neddylation of Cullin protein. Potential ligands were assessed that might fit the DCN1 domain cavities (FIG. 1B). 3-(pentylamino)-5-phenylcyclohex-2-en-1-one was selected for future testing (FIG. 1C). […] MLN4924 was used as a positive control.

HepG2 cells [3] = assay: Cell morphology under white field microscopy; format: cell-based; settings: 10 μM, time dependent (FIG. 6C)
Protocol: as §2

HepG2 tumor implants = HepG2 tumor implants in nude mice, tumor growth; format: in vivo, athymic nude mice; settings: compounds in drinking water (15 mg/kg/d), start at tumor size 0.1 cm^3 (FIG. 8)
Protocol: Mice were implanted with HepG2 cells (10^6 cells) through subcutaneous injection. 2 weeks later, once tumor size reaches ˜0.1 cm^3, mice were randomized and the treatment began by adding compounds to the drinking water ([…]). Tested compounds were: Vehicle, 3-(decylamino)-5-phenylcyclohex-2-en-1-one (BC1558), 3-(dibenzylamino)-5-phenylcyclohex-2-en-1-one (BC1634) or 3-((4-phenoxybenzyl)amino)-5-phenylcyclohex-2-en-1-one (BC1653). Tumor volume measurements over time were graphed (n=4-5 mice/group, *P<0.05 versus Vehicle).
As a complementary in vivo model, tumorogenicity was further assessed after implanting HepG2 cells along with 3-(decylamino)-5-phenylcyclohex-2-en-1-one, 3-(dibenzylamino)-5-phenylcyclohex-2-en-1-one, 3-((4-phenoxybenzyl)amino)-5-phenylcyclohex-2-en-1-one treatment in athymic nude mice. Mice were implanted with HepG2 cells through subcutaneous injection. Two weeks later, once tumor size reached 0.1 cm^3, the mice were randomized and the treatment began by adding compounds to the drinking water (15 mg/kg/d).

human lung tissue = assay: LPS-treated human lung slices, cytokines and immunoblotting; format: cell-based
Protocol: as §3
3-(decylamino)-5-phenylcyclohex-2-en-1-one was next tested in human lung tissue. Human lung slices were pretreated with 3-(decylamino)-5-phenylcyclohex-2-en-1-one for 18 h before LPS treatment (100 ng/ml) for additional 4 h. […] 3-(decylamino)-5-phenylcyclohex-2-en-1-one reduced nedd8-cullins level and rescued IκBα in a dose dependent manner.

HepG2 cells [4] = assay: Mitotic spindle immunostaining (α-tubulin, DAPI); format: cell-based; settings: 1 uM, 24 h (FIG. 7B)
Protocol: Cells were then washed with PBS and fixed with 4% paraformaldehyde for 20 min. Cells were co-immunostained for either α-tubulin. Cells were counterstained with DAPI to visualize the nucleus.
The integrity of the centrosome and mitotic spindles after 3-(decylamino)-5-phenylcyclohex-2-en-1-one treatment was examined. HepG2 cells were stained with antibody to α-tubulin to visualize the mitotic spindle (FIG. 7A-B). […] The circular prophase configurations were observed (FIG. 7B, top panel). One classic phenotype of the circular chromosome configuration is circular figures arranged on monopolar spindles around large centrosomes. No spindles assembly in metaphase was observed (FIG. 7B, lower panel).

[5] = tested on: Clvd-caspase3 and Clvd-PARP; assay: Apoptosis markers, protein immunoblotting in HepG2 cells; format: cell-based
HepG2 cells [6] = assay: Wound-healing assay; format: cell-based; settings: 36 h (FIG. 5C)
Protocol: as §1

[7] = human lung slices, dose dependent

## CCCCCCCCCCNC1=CC(=O)CC(c2ccccc2)C1 (centres unmarked) [BC1558, 3-(decylamino)-5-phenylcyclohex-2-en-1-one]
HepG2 cells [1]; 10 μM, at 16 h (FIG. 6B)
  G0 and G2/M phases: increased
  S phase: effectively decreased
HepG2 cells [1]; 36 h, dose dependent (FIG. 5B)
  G0 and G2/M phases: increased
  S phase: effectively decreased
PBMC cells
  LPS-induced TNF release from PBMC cells: potently inhibited
[2]; compounds in drinking water at 10 mg/kg/d (FIG. 12A-B)
  colon length compared vehicle: significant increase
[2]; compounds in drinking water at 10 mg/kg/d (FIG. 12C-D)
  IL1β and IL6 levels in colonic tissue compared to vehicle: large reduction
Nedd8-cullin; 10 μM, time dependent (FIG. 6A)
  neddylation of several cullin isoforms: drastically reduced
Nedd8-cullin; 48 h, dose dependent (FIG. 5A)
  neddylation of several cullin isoforms: drastically reduced
Nedd8-cullin; 48 h, various concentration (FIG. 4)
  activity compared with MLN4924: comparable activity
Nedd8-cullin; 48 h, various concentrations (FIG. 3C)
  reducing Cullin Neddylation: exhibited activity
HepG2 cells [3]
  cell morphology: accumulation of rounded, apoptotic hepG2 cells
HepG2 tumor implants
  tumor size compared to the vehicle: Significantly reduced tumor size
Human lung tissue; [7]
  IκBα: rescued
  nedd8-cullins level: reduced
Human lung tissue; pretreated 18 h, LPS 100 ng/ml for 4 h
  LPS induced IL1, IL6 and TNF release from lung tissue: potently inhibited
HepG2 cells [4]
  integrity of the centrosome and mitotic spindles: Abnormal cells with several representative mitotic abnormalities were also detected
[5]; 10 μM, various times (FIG. 6A)
  apoptosis markers Clvd-caspase3 and Clvd-PARP: effectively increased
[5]; 48 h, various concentrations (FIG. 5A)
  apoptosis markers Clvd-caspase3 and Clvd-PARP: effectively increased
HepG2 cells [6]
  hepG2 cells migration: showed inhibition
